What was measured:
[1] = target: T1, human sweet receptor hT1R2/hT1R3 (Homo sapiens, UniProt Q7RTX0+Q8TE23); conditions: prevented by pertussis toxin; cited from earlier work
T1 construct: host or cells: human embryonic kidney cells (earlier application U.S. Ser. No. 10/770,127)
T1 sequence (Q8TE23 20-839): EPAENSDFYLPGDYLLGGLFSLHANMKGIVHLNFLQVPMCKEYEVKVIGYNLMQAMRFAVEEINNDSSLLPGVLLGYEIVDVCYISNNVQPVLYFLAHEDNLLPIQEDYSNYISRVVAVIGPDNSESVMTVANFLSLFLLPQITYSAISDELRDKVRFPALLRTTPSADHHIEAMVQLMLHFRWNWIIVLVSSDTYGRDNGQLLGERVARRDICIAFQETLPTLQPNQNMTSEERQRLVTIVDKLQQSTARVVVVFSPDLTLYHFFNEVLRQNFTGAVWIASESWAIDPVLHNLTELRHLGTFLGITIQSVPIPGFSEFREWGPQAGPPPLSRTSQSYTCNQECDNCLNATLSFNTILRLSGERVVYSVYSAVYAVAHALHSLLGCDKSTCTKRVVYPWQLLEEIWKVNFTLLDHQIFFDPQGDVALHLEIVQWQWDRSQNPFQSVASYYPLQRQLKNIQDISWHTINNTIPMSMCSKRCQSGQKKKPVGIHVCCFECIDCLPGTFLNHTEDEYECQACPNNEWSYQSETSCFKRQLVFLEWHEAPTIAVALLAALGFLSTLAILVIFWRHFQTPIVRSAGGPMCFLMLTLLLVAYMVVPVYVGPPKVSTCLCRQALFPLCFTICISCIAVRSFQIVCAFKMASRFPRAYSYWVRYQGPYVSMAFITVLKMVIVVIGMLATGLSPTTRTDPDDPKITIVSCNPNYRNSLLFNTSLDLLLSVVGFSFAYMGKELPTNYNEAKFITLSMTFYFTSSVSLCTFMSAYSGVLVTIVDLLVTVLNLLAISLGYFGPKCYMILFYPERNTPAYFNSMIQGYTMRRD
T1 sequence (Q7RTX0 21-852): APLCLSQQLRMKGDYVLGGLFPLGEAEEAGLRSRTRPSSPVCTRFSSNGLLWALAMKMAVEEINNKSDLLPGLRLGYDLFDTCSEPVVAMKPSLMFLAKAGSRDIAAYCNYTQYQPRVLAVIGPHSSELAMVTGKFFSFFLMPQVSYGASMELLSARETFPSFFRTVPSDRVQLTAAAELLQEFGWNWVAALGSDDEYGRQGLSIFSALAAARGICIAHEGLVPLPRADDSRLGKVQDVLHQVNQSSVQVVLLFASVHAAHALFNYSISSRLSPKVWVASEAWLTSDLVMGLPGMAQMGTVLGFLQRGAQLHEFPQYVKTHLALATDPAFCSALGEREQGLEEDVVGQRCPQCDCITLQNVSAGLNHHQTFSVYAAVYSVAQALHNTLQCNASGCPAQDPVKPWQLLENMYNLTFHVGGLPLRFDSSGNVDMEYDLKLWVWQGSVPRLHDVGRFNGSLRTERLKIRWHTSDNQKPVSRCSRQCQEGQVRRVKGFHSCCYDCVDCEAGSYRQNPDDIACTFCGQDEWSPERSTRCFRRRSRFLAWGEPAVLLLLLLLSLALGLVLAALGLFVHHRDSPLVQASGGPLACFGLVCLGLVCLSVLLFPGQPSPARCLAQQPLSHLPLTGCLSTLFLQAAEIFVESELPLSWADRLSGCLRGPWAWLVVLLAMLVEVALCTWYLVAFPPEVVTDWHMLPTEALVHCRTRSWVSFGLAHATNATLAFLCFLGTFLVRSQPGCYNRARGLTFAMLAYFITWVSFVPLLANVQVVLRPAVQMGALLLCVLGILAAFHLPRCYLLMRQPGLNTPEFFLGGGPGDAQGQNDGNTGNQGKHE

[2] = system: rat bitter receptors rT2R9; conditions: abolished by pertussis toxin; cited from earlier work
bitter receptor mT2R05 = target: T2, bitter receptor mT2R05 (Mus musculus, UniProt Q9JKT4); experiment: Isoproterenol-induced calcium influx in HEK-293-oCNGC cells expressing mT2R05; format: cell-based; conditions: 200 nM isoproterenol, FIG. 16
T2 construct: expressed in transfected cells; host or cells: HEK-293 stably expressing OCNC1 and β1b (HEK-293-oCNGC)
T2 sequence (Q9JKT4 1-300): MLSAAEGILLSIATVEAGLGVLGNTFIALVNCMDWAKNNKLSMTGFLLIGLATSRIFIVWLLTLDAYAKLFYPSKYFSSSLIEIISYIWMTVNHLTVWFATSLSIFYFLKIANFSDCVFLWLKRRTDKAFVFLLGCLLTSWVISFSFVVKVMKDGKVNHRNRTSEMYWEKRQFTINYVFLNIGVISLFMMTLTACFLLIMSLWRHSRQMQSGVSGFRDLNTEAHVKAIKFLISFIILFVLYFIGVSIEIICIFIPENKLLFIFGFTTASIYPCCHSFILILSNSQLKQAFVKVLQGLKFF
Procedure: Delta F/F values were normalized to the fluorescence obtained after stimulation with 200 nM isoproterenol. Each value corresponds to the mean +1-SD of a triplicate determination. Cells were also treated with PTX as described for the for the preceding figure.
Modulation of oCNG activity by taste receptors is measured in a cell-based assay that detects changes in intracellular calcium (as described in earlier examples). In brief, human embryonic kidney cells stably expressing the OCNC1 and are β1b subunits of oCNGC are transiently or stably transfected with T1R or T2R receptor plasmids. Transfected cells are seeded into 384-well culture plates, and functional expression is allowed to proceed for about 24 to 48 hours. The cells are then incubated with a calcium specific fluorescent dye (Fluo-4 or Fura-2, available from Molecular Probes) that provides for fast, simple and reliable fluorimetric detection of changes in calcium concentration within the cell. […]
More specifically, it was shown that PTx prevented inhibition of calcium inluux even with increasing concentrations of cycloheximide in HEK-293—oCNGC cells expressing mT2R05. As in figures above, Delta F/F values were normalized to the fluorescence obtained after stimulation with 200 nM isoproterenol. […]

mT2R05 = target: T3, mT2R05 (Mus musculus, UniProt Q9JKT4); conditions: mT2R05-expressing cells; cited from earlier work
T3 construct: host or cells: human embryonic kidney cells (earlier application)
T3 sequence (Q9JKT4 1-300): T2 sequence (Q9JKT4 1-300)

[3] = target: T4, mouse bitter receptor mT2R05 (Mus musculus, UniProt Q9JKT4); conditions: abolished by pertussis toxin; cited from earlier work
T4 construct: host or cells: human embryonic kidney cells (earlier application)
T4 sequence (Q9JKT4 1-300): T2 sequence (Q9JKT4 1-300)

[4] = system: untransfected HEK 293-oCNGC cells; experiment: Isoproterenol-induced calcium influx in untransfected HEK 293-oCNGC cells; format: cell-based, human; conditions: for effect on isoproterenol-induced calcium influx: cells not expressing hT1R2/hT1R3, increasing concentrations, 200 nM isoproterenol, FIG. 14
Procedure: Delta F/F valves were normalized to the fluorescence obtained after stimulation with 200 nM isoproterenol. Each value corresponds to the mean ± SD of a triplicate determination.
(§1) Modulation of oCNG activity by taste receptors is measured in a cell-based assay that detects changes in intracellular calcium (as described in earlier examples). In brief, human embryonic kidney cells stably expressing the OCNC1 and are β1b subunits of oCNGC are transiently or stably transfected with T1R or T2R receptor plasmids. Transfected cells are seeded into 384-well culture plates, and functional expression is allowed to proceed for about 24 to 48 hours. The cells are then incubated with a calcium specific fluorescent dye (Fluo-4 or Fura-2, available from Molecular Probes) that provides for fast, simple and reliable fluorimetric detection of changes in calcium concentration within the cell.
An experiment was conducted to confirm that the effects of the sweeteners on calcium influx requires the expression of the sweet receptor.
In FIG. 14, it is shown that increasing concentrations of the tested sweeteners had no inhibitory effect on isoproterenol-induced calcium influx in untransfected HEK 293—oCNGC cells. Again, Delta F/F values were normalized to the fluorescence obtained after stimulation with 200 nM isoproternol and each value component to the mean ± SD of a triplicate determination).

hT1R1/hT1R3 = target: T5, hT1R1/hT1R3 (Homo sapiens, UniProt Q7RTX0+Q7RTX1); conditions: hT1R1/hT1R3-expressing cells; cited from earlier work
T5 construct: host or cells: human embryonic kidney cells (earlier application U.S. Ser. No. 10/770,127)
T5 sequence (Q7RTX1 21-841): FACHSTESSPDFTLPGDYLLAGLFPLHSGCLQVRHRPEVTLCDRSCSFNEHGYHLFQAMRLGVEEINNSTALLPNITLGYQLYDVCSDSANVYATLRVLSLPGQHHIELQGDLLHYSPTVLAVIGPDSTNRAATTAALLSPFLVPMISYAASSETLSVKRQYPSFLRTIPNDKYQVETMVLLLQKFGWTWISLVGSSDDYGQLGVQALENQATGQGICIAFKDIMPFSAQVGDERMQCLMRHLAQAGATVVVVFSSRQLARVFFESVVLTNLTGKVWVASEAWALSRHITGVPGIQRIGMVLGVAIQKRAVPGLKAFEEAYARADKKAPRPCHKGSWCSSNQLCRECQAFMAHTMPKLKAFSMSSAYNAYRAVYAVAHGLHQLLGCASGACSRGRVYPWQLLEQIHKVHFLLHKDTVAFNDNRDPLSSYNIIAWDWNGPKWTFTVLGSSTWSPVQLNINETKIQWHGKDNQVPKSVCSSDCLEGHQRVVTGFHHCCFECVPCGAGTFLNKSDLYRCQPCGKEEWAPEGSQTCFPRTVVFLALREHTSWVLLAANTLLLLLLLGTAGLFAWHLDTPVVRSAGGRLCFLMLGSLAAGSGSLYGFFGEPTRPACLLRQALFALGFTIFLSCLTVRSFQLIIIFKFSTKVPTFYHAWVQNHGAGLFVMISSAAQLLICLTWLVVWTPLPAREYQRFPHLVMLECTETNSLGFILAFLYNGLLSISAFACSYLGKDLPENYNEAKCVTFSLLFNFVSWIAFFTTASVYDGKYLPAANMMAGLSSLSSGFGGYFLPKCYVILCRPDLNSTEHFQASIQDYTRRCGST
T5 sequence (Q7RTX0 21-852): T1 sequence (Q7RTX0 21-852)

[5] = target: T6, human umami receptor hT1R1/hT1R3 (Homo sapiens, UniProt Q7RTX0+Q7RTX1); conditions: prevented by pertussis toxin; cited from earlier work
T6 sequence (Q7RTX1 21-841): T5 sequence (Q7RTX1 21-841)
T6 sequence (Q7RTX0 21-852): T1 sequence (Q7RTX0 21-852)

[6] = target: T1, human sweet receptor hT1R2/hT1R3; experiment: Isoproterenol-induced calcium influx in HEK-293-oCNGC cells expressing hT1R2/hT1R3; format: cell-based; conditions: PTX 100 ng/ml for 4 hours; 200 nM isoproterenol; 5 mM Aspartame, 2 mM Cyclamate, 4 mM Saccharin, 0.1 mM Neotame; FIG. 15
Procedure: FIG. 13 contains the result of an experiment showing that increasing concentrations of sweeteners inhibit the isoproterenol-induced-calcium influx in HEK 293-oCNGC cells expressing the human sweet receptor hT1R2/hT1R3. Delta F/F values were normalized to the fluorescence obtained after stimulation with 200 nM isoproterenol. Each value corresponds to the mean ± SD of a triplicate determination.
Cells were left untreated (control) or treated with PTX for 4 hours at 100 ng/ml prior to the experiment. Cells were then stimulated with 200 nM isoproterenol in the presence or absence of the indicated sweeteners (5 mM Aspartame, 2 mM Cyclamate, 4 mM Saccharin and 0.1 mM Neotame).
as §1
An experiment was conducted to assess the effect of various sweeteners (known to activate the human T1R2/T1R3 sweet receptor) on isoproterenol-induced calcium influx in HEK-293—oCNGC cells that express the human T1R2/T1R3 sweet receptor. As shown by the results in FIG. 13, increasing concentrations of sweetener inhibits isoproterenol-induced calcium influx in these cells. (In the figure, Delta F/F values were normalized to the fluorescence obtained after stimulation with 200 nM isoproterenol and each value corresponds to the means ± SD of a triplicate determination). […]

With `N[C@H](Cc1c[nH]c2ccccc12)C(=O)O` [D-tryptophan] as the molecule, how does the ERK1/2 activation [1] read?
Its ERK1/2 activation is “activate ERK1/2”.

For `C[C@@H]1C[C@@H]([C@H](O)CC2CC(=O)NC(=O)C2)C(=O)[C@@H](C)C1` [cycloheximide], which ERK1/2 activation [2] is on record?
The ERK1/2 activation was “specifically activates ERK1/2”.

What about the “effect on isoproterenol-induced calcium influx after PTx treatment” value (bitter receptor mT2R05; cells treated with PTx) of the same molecule?
The value was “failed to inhibit isoproterenol-induced calcium influx”.

And the “effect on isoproterenol-induced calcium influx” value (bitter receptor mT2R05; increasing concentrations)?
Its value is “inhibited isoproterenol-induced calcium influx”.

And the “inhibition of forskolin-induced cAMP accumulation” value (mT2R05)?
Its value is 70%.

And the ERK1/2 activation [3]?
Its ERK1/2 activation is “specifically activates ERK1/2”.

What about the “response of mT2R05 untransfected cells” value ([4]; untransfected HEK 293-oCNGC cells, FIG. 16) of the same molecule?
The value was “did not respond”.

Which “decrease of basal levels of cAMP” value (hT1R1/hT1R3) does the source give for `N[C@@H](CCC(=O)O)C(=O)[O-].[Na+]` [monosodium glutamate] here?
Its value is 50%.

What about the ERK1/2 activation [5] of the same molecule?
Its ERK1/2 activation is “exclusively activates ERK1/2”.

With `COC(=O)[C@H](Cc1ccccc1)NC(=O)[C@H](CC(=O)O)NCCC(C)(C)C` [neotame] as the molecule, how does the “inhibition of isoproterenol-induced calcium influx after PTx pretreatment” value [6] read?
Its value is “prevented the inhibition”.

What about the “effect on isoproterenol-induced calcium influx” value [4] of the same molecule?
The value was “unaffected”.

For `O=C1NS(=O)(=O)c2ccccc21` [saccharin], which “inhibition of isoproterenol-induced calcium influx after PTx pretreatment” value [6] is on record?
The value was “prevented the inhibition”.

What about the ERK1/2 activation [1] of the same molecule?
The ERK1/2 activation was “activate ERK1/2”.

What about the “effect on isoproterenol-induced calcium influx” value [4] of the same molecule?
The value was “unaffected”.

For `OC[C@H]1O[C@@](CO)(O[C@H]2O[C@H](CO)[C@@H](O)[C@H](O)[C@H]2O)[C@@H](O)[C@@H]1O` [sucrose], which ERK1/2 activation [1] is on record?
The ERK1/2 activation was “activate ERK1/2”.
